Data on eight compounds can be found in patent US9227971B2, “Pyrazolo[1,5-a]pyrimidine compounds as mTOR inhibitors” (Merck Sharp & Dohme Corp., priority 2010, dated 2016).

Read-outs that look alike come from different tables or passages of the source.

Test [1] deals with phosphorylated AKT Ser473 (pAKT S473), mTORC2 activity, PC3 cells. The test is described as follows: mTOR target engagement assay, immunofluorescent cell-based, pAKT S473 readout (mTORC2 activity). Particulars: Homo sapiens. A digest of the protocol: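 After blocking, cells were stained overnight at 4 °C with anti-pAKT S473 antibody, then a fluorescent secondary; inhibition was read as reduced fluorescence intensity.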

In test [2] the test system is phosphorylated 4E-BP1 Thr37/46 (p4E-BP1 Thr37/46), mTORC1 activity, PC3 cells. In words: mTOR target engagement assay, immunofluorescent cell-based, p4E-BP1 Thr37/46 readout (mTORC1 activity). Particulars: Homo sapiens, read-out: p4E-BP1 Thr37/46 IC50. A digest of the protocol: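 Cell-based immunofluorescence in PC3 cells: serially diluted compounds (0.25% DMSO, 5% FBS) applied for ninety minutes at 37° C before fixation and overnight 4° C staining of p4E-BP1 Thr37/46. Untreated DMSO wells set maximal phosphorylation; IC50 obtained by logistic fitting.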

[3] abbreviates: PC-3, PC3 cells, compound treatment ninety minutes at 37° C.

For the compound `CS(=O)(=O)c1c([C@H]2CC3CC[C@H](C2)N3C(=O)c2cc[nH]n2)nc2c(-c3ccc(C(O)C(F)(F)F)nc3)cnn2c1N` (stereo partly drawn) [Compound 7.69, ((1R,3s,5S)-3-(7-amino-6-(methylsulfonyl)-3-(6-(2,2,2-trifluoro-1-hydroxyethyl)pyridin-3-yl)pyrazolo[1,5-a]pyrimidin-5-yl)-8-azabicyclo[3.2.1]octan-8-yl)(1H-pyrazol-3-yl)methanone], the IC50 in test [1] (PC-3, PC3 cells) is 1000 to 10000 nM; in test [2] (PC-3, PC3 cells) it was 1000 to 10000 nM.

As for `CC(=O)c1c([C@@H]2C[C@H]3CC[C@@H](C2)N3C(=O)c2nnc[nH]2)nc2c(-c3cnn(CCO)c3)cnn2c1N` [Compound 1.1.155, 1-(5-((1R,3s,5S)-8-(4H-1,2,4-triazole-3-carbonyl)-8-azabicyclo[3.2.1]octan-3-yl)-7-amino-3-(1-(2-hydroxyethyl)-1H-pyrazol-4-yl)pyrazolo[1,5-a]pyrimidin-6-yl)ethanone], the IC50 in test [1] (setting [3]) and in test [2] (setting [3]) was 1000 to 10000 nM each time.

For the compound `CCC(=O)c1ccc(-c2cnn3c(N)c(C(C)=O)c([C@@H]4C[C@H]5CC[C@@H](C4)N5C(=O)c4nnc[nH]4)nc23)cn1` [Compound 1.1.83, 1-(5-(5-((1R,3s,5S)-8-(4H-1,2,4-triazole-3-carbonyl)-8-azabicyclo[3.2.1]octan-3-yl)-6-acetyl-7-aminopyrazolo[1,5-a]pyrimidin-3-yl)pyridin-2-yl)propan-1-one], the IC50 in test [1] (setting [3]) and in test [2] (setting [3]) was 100 to 1000 nM in each case.

Turning to `CCC(O)c1ccc(-c2cnn3c(N)c(S(C)(=O)=O)c([C@@H]4C[C@H]5CC[C@@H](C4)N5C(=O)c4nnc[nH]4)nc23)cn1` (stereo partly drawn) [Compound 7.26, ((1R,3s,5S)-3-(7-amino-3-(6-(1-hydroxypropyl)pyridin-3-yl)-6-(methylsulfonyl)pyrazolo[1,5-a]pyrimidin-5-yl)-8-azabicyclo[3.2.1]octan-8-yl)(4H-1,2,4-triazol-3-yl)methanone], the IC50 in test [1] (PC-3, Table 7-2, PC3 cells) was 100 to 1000 nM; in test [2] (PC-3, Table 7-2, PC3 cells), 100 to 1000 nM.

On to `CC(=O)c1c([C@@H]2C[C@H]3CC[C@@H](C2)N3C(=O)c2nnc[nH]2)nc2c(-c3ccc(-c4nnn(C)n4)nc3)cnn2c1N` [Compound 1.1.63, 1-(5-((1R,3s,5S)-8-(4H-1,2,4-triazole-3-carbonyl)-8-azabicyclo[3.2.1]octan-3-yl)-7-amino-3-(6-(2-methyl-2H-tetrazol-5-yl)pyridin-3-yl)pyrazolo[1,5-a]pyrimidin-6-yl)ethanone], for which the IC50 in test [1] (setting [3]) and in test [2] (setting [3]) was 1 to 100 nM throughout.

`CC(=O)c1c([C@@H]2C[C@H]3CC[C@@H](C2)N3C(=O)c2nnc(N)[nH]2)nc2c(-c3ccc(C(N)(C(F)(F)F)C(F)(F)F)nc3)cnn2c1N` [Compound 7.83]: the IC50 in test [1] (PC-3, PC3 cells) was 1000 to 10000 nM; in test [2] (PC-3, PC3 cells), 100 to 1000 nM.

As for `CS(=O)(=O)c1c([C@H]2CC3CC[C@H](C2)N3C(=O)c2cn[nH]n2)nc2c(-c3ccc(-c4ccccc4F)nc3)cnn2c1N` [Compound 3.170, ((1R,3s,5S)-3-(7-amino-3-(6-(2-fluorophenyl)pyridin-3-yl)-6-(methylsulfonyl)pyrazolo[1,5-a]pyrimidin-5-yl)-8-azabicyclo[3.2.1]octan-8-yl)(2H-1,2,3-triazol-4-yl)methanone], the IC50 in test [1] (PC-3, Table 3-1, PC3 cells) lay within 100 to 1000 nM; in test [2] (PC-3, Table 3-1, PC3 cells), 100 to 1000 nM.

For `COc1ccc(-c2ccc(-c3cnn4c(N)c(C(C)=O)c([C@@H]5C[C@H]6CC[C@@H](C5)N6C(=O)CO)nc34)cn2)cc1CO` [Compound 1.1.36, 1-((1R,3s,5S)-3-(6-acetyl-7-amino-3-(6-(3-(hydroxymethyl)-4-methoxyphenyl)pyridin-3-yl)pyrazolo[1,5-a]pyrimidin-5-yl)-8-azabicyclo[3.2.1]octan-8-yl)-2-hydroxyethanone], the IC50 in test [1] (setting [3]) and in test [2] (setting [3]) was 1 to 100 nM each time.
